Columns and labels:
[1] = system: PTEN-P2/GFP mouse cancer cells; assay: Dose response plumbagin in PTEN-P2/GFP cells, cell counting with or without DHT; type: cell-based; conditions: for % control / Average % control: 24 hours; for Average % control: mean of two experiments
Protocol: Cell counting: Cells in 12-well plates are washed once with PBS, detached using Trypsin, and transferred to a suspension vial in a final volume of 10 ml PBS. Cells are counted using a COULTER™ Multisizer II instrument (Beckman Coulter Inc., Hialeah, Fla.) gated for the appropriate cell size and corrected for particulate debris.
PTEN-P2/GFP mouse cancer cells were placed in androgen withdrawal medium in the presence or absence of DHT (dihydrotestosterone) at a final concentration of 10^−8 M. Plumbagin was added at the indicated concentrations for 24 hours. The absence of DHT simulates surgical or chemical castration. Cells were trypsinized and counted using a Cell Coulter counter Multisizer II, which excludes debris. Results represent cell numbers as percent of control (in which the number of cells in the absence of drug is 100%).
Androgen withdrawal medium: DMEM high-glucose phenol-red free, with the following additives: 10% charcoal-treated Fetal Bovine Serum, 25 ug/ml bovine pituitary extract, 5 ug/ml insulin, 6 ng/ml EGF recombinant.

PTEN-P2/GFP tumor = assay: In vivo effect of plumbagin combined with castration, pseudo-orthotopic chamber model (Example 5); set-up: species or system nude mice
Protocol: Animal model and surgical techniques: Animal experiments have been approved as appropriate. All surgical procedures are performed in a sterile laminar flow hood. Dorsal skinfold chambers and surgical instruments are autoclaved before use. Saline used to keep tissue moist during surgical preparation is mixed with gentamicin ([…]).
Male Nude mice (25-35 g body weight) are anesthetized (7.3 mg ketamine hydrochloride and 2.3 mg xylazine/100 g body weight, i.p.) and placed on a heating pad. Two symmetrical titanium frames are implanted into a dorsal skinfold, so as to sandwich the extended double layer of skin. A 15 mm full thickness circular layer is excised. The underlying muscle (M. cutaneous max.) and subcutaneous tissues are covered with a glass coverslip incorporated in one of the frames. After a recovery period of 2-3 days, prostate tissue and cancer cell spheroids are carefully placed in the chamber. Small circular Band Aids are applied on the backside of the chamber after surgery to prevent scratching. Before surgery, Buprenorphine (0.1 mg/kg) will be given IP. After surgery Meloxicam will be given in the drinking water for 4 days Meloxicam (5.0 mg/ml), is added at 35 μl per 100 ml of water to be medicated.
Preparation of stroma: A male donor mouse is euthanized and the anterior prostate tissue is excised, put in a Petri dish with antibiotics (gentamicin 50 μl/ml), and minced with fine scissors into small pieces (<1 mm^2) for implantation.
Preparation of tumor spheroids: Liquid overlay plates are generated using 1% Agarose melted in DMEM that is added to round-bottom 96-well plates (50 ul/well). […] Viability is determined using Trypan blue. […]. The size of the implanted spheroid can be determined precisely to minimize variations between animals. […]
Intravital microscopy: Fluorescence microscopy is performed using a Mikron Instrument Microscope equipped with epi-illuminator and video-triggered stroboscopic illumination from a xenon arc (MV-7600, EG&G). […]

fibrosarcomas = conditions: cited from earlier work
[2] = system: P388 lymphocytic leukemia; conditions: cited from earlier work
hepatoma = conditions: in vivo; cited from earlier work
[3] = system: hormone-refractory prostate cancer; conditions: Aziz et al., Cancer Res. 2008; cited from earlier work
prostate carcinoma cells = conditions: 5 umol/L; cited from earlier work
[4] = system: PTEN-P2/GFP prostate cancer cells; assay: Effect of naphthoquinone analogs on PTEN-P2/GFP cell proliferation (CellTiter96 formazan-based viability assay); conditions: Mus musculus, 24 h
Protocol: Cell culture: PTEN-P2/GFP are cells that stably express histone H2B-GFP fusion protein.
Cells are grown in DMEM medium containing 10% FBS, 2 mM L-glutamine, 100 U/ml penicillin/100 μg/ml streptomycin, insulin-selenium-transferrin (5 μg/ml insulin), and DHT 10^−8 M final. Androgen withdrawal is achieved by keeping the cells in phenol red-free DMEM medium containing 10% charcoal-treated FBS and the same supplements as in the normal medium except for DHT. Cells are maintained in a humidified incubator at 37° C. and 5% CO2. G418 (100 μg/ml) is added to maintain stable expression of H2B-GFP.
PTEN-P2/GFP prostate cancer cells were plated at a density of 8000 cells/well in 96-well plates (triplicates) in growing medium containing 10% Fetal Bovine Serum and DHT. The next day, increasing concentrations of a naphthoquinone analog (diluted from 10 mM DMSO stock solutions) were incubated for 24 hrs. Cell viability was determined by the formazan-based cytotoxicity assay “CellTiter96Aquaeous nonradioactive proliferation assay” (Promega).

## CC1=CC(=O)c2c(O)cccc2C1=O [Plumbagin, 5-hydroxy-2-methylnaphthalene-1,4-dione]
[1]; in vitro, PTEN-P2/GFP cells
  efficiency of plumbagin with simulated castration (no DHT) versus plumbagin alone: more efficient than treatment with plumbagin alone
[1]; noDHT, 1 μM plumbagin, first experiment
  % control: 73.70%
[1]; noDHT, 1 μM plumbagin
  Average % control: 84.83%
[1]; noDHT, 1 μM plumbagin, second experiment column
  % control: 95.96%
[1]; noDHT, 2 μM plumbagin, first experiment
  % control: 42.90%
[1]; noDHT, 2 μM plumbagin
  Average % control: 40.02%
[1]; noDHT, 2 μM plumbagin, second experiment column
  % control: 37.14%
[1]; noDHT, 4 μM plumbagin, first experiment
  % control: 10.12%
[1]; noDHT, 4 μM plumbagin
  Average % control: 5.84%
[1]; noDHT, 4 μM plumbagin, second experiment column
  % control: 1.57%
[1]; noDHT, 8 μM plumbagin, first experiment
  % control: 0.45%
[1]; noDHT, 8 μM plumbagin
  Average % control: 0.33%
[1]; noDHT, 8 μM plumbagin, second experiment column
  % control: 0.22%
[1]; with DHT, 1 μM plumbagin, first experiment
  % control: 106.93%
[1]; with DHT, 1 μM plumbagin
  Average % control: 84.11%
[1]; with DHT, 1 μM plumbagin, second experiment column
  % control: 61.29%
[1]; with DHT, 2 μM plumbagin, first experiment
  % control: 94.18%
[1]; with DHT, 2 μM plumbagin
  Average % control: 56.67%
[1]; with DHT, 2 μM plumbagin, second experiment column
  % control: 19.16%
[1]; with DHT, 4 μM plumbagin, first experiment
  % control: 22.62%
[1]; with DHT, 4 μM plumbagin
  Average % control: 13.76%
[1]; with DHT, 4 μM plumbagin, second experiment column
  % control: 4.89%
[1]; with DHT, 8 μM plumbagin, first experiment
  % control: 0.85%
[1]; with DHT, 8 μM plumbagin
  Average % control: 0.62%
[1]; with DHT, 8 μM plumbagin, second experiment column
  % control: 0.40%
PTEN-P2/GFP tumor; plumbagin 1 mg/kg intraperitoneal once/day soon after surgical castration
  efficiency of combination of plumbagin with castration versus either treatment alone: more efficient in vivo than either treatment alone
PTEN-P2/GFP tumor; plumbagin 1 mg/kg ip once/day plus surgical castration
  tumor size, castration with plumbagin: significant decreases in tumor size
PTEN-P2/GFP tumor; plumbagin 1 mg/kg ip once/day, no castration
  tumor size, plumbagin only: did not lead to a marked decrease in tumor size
fibrosarcomas
  ED50: 0.75 mg/kg body weight
[2]
  ED50: 4 mg/kg body weight
hepatoma
  effect on hepatoma: induced regression of hepatoma
[3]
  effect on growth and invasion of hormone-refractory prostate cancer: inhibited growth and invasion of hormone-refractory prostate cancer
Prostate carcinoma cells
  expression of PKCq, PI3K, AKT, activation of AP-1, NF-κB, Stat3: inhibit expression of multiple molecular targets
[4]
  IC50: 4.55 µM
[4]; 1 μM, medium with 10% FBS and DHT
  viability at 1 µM: 94.6%
[4]; 2 μM, medium with 10% FBS and DHT
  viability at 2 µM: 90.9%
[4]; 3 μM, medium with 10% FBS and DHT
  viability at 3 µM: 88.9%
[4]; 4 μM, medium with 10% FBS and DHT
  viability at 4 µM: 73%
[4]; 5 μM, medium with 10% FBS and DHT
  viability at 5 µM: 32.9%
[4]; 7 μM, medium with 10% FBS and DHT
  viability at 7 µM: 0.4%
[4]; 10 μM, medium with 10% FBS and DHT
  viability at 10 µM: 0.6%

Reference: patent publication US10245240B2, “Treatment of prostate carcinoma” (Pellficure Pharmaceuticals, Inc., priority 2010, dated 2019)
